Data set [1] relates to hESCs. As to the kind of experiment: ALP positive colony formation / low-density survival assay of dissociated hESCs on Matrigel. In kind it is cell-based, human. Particulars: for Activity (% ALP positive colony formation by hESCs): Ratio of ALP positive colonies vs. total initially seeded cells. As to the method: Human ESC lines H1, HUES7 and HUES9 were cultured on irradiated MEF feeder cells in DMEM-F12 supplemented with 2 mM L-glutamine, lx nonessential amino acids, 20% serum replacement (Invitrogen) and 10 ng/ml basic Fibroblast growth factor (Invitrogen). Chemically-defined and feeder-free hESC culture was described previously (Yao, S. et al., Proc Natl Acad Sci USA 103 (18):6907-6912 (2006)). Briefly, hESCs were grown on Matrigel-coated tissue culture plates in N2B27-CDM (DMEM-F12 supplemented with 1×N2 supplements, lx B27 supplements, 2 mM L-glutamine, 0.11 mM 2-mercaptoethanol, lx nonessential amino acids, and 0.5 mg/ml BSA (fraction V)) and 20 ng/ml bFGF. Human ESCs were passaged every 5-6 days with 0.05% trypsin.
For clonal survival assays, single hESCs were diluted to clonal density and plated onto 96-well Matrigel-coated plate. For low-density survival assays, 500 cells were plated onto 96-well Matrigel-coated plate. To visualize hESC colonies, cultures were fixed in 4% paraformaldehyde in PBS for 5 min, washed once in PBS, then stained for alkaline phosphatase activity as described in manufacturer's instructions. ALP positive colonies were counted on an inverted microscope.
ALP detection kit and integrin antibodies were from Chemicon. AG825 (Erb2 inhibitor), AG1478 (EGFR inhibitor), PPP (IGFR1 inhibitor) were purchased from Calbiochem. Antibodies raised against the intracytoplasmic tail of E-cadherins (Transduction Laboratories, Lexington, Ky.) were used for immunoprecipitation. The antibody TS2/16 was from Pierce. Antibodies to the extracellular domain of E-cadherin molecule were from Zymed (Carlsbad). Antibodies against extracellular signal-regulated kinase/MAPK, EGFR1, ERB2, GADPH and phosphorylated form of AKT were from Cell Signaling. Mouse monoclonal anti-phosphotyrosine (4G-10 clone) was from Upstate Biotechnology. Ptn and Tzv were added to culture medium at 2 μM. […]

Data set [2] has as its system hESCs. As to the kind of experiment: Cell adhesion assay. It counts as cell-based, human. As to the method: Cell adhesion assays were performed in 96-well microtiter plates coated with Matrigel. After trypsin, hESCs were resuspended in the chemically-defined media containing the desired compounds. Cells were then added to the microtiter wells and incubated for 3 h at 37° C. Unbound and loosely bound cells were removed by shaking and washing, and the remaining cells were then fixed immediately. The wells were washed 3 times with 200 μl of H2O, and attached cells were stained with Crystal Violet (Sigma). The absorbance of each well at 570 nm was then measured. For experiments with blocking antibodies, cells were pre-incubated with antibodies on ice for 30 min, and adhesion assays were performed in the presence of antibodies. Each sample was assayed independently for three times.

Data set [3] relates to β1 integrin. The data set can be described thus: Activated β1 integrin (HUTS-21 binding; flow cytometry, immunostaining). In kind it is cell-based, human. The following applies: PMA 10 nM; immunostaining of active β1 integrins. An excerpt:
To gain insights into the mechanism of β1 integrin regulation by Tzv and Ptn, we investigated whether the compounds' effect is due to changes of integrin expression. In contrast to E-cadherin, β1 integrin was not cleaved by trypsin. […] Thus, Tzv and Ptn are likely to affect cell adhesion by modulating integrin activity (FIG. 3 d,e). To examine the effects of compound treatment on the activity of β1 integrin, we used the monoclonal antibody HUTS-21, which specifically binds to the activated form of the 131 integrin (Luque, A. et al., J Biol Chem 271 (19):11067-11075 (1996)).
To assess the expression of E-cadherin, activated integrin and SSEA4, dissociated cells (3×10^5) were washed with PBS and resuspended in PBS containing 2% goat serum. Cells were then incubated with the appropriate antibody for 1 h at 4° C., washed with the blocking solution, and labeled with FITC-conjugated secondary antibody for 30 min at 4° C. Cells were then washed and analyzed on a FACS Calibur flow cytometer.
For orientation: Flow cytometry measures light scatter and fluorescence of single cells or particles in a stream.

Data set [4] deals with hESCs. The data set can be described thus: Cell death analysis of dissociated hESCs in suspension culture. In kind it is cell-based, human. An excerpt:
hESCs are known to be difficult in forming embryoid bodies (EBs) in suspension culture after single cell dissociation due to extensive cell death. Thus, we also tested whether Tzv or Ptn could promote survival of dissociated hESCs in suspension. […] Because cell aggregation is most often mediated through cell-cell adhesions and E-cadherin is the primary cell-cell adhesion molecule, as well as highly expressed in hESCs (Eastham, A. M. et al., Cancer Res 67 (23): 11254-11262 (2007)), we tested the effect of a specific E-cadherin blocking antibody on multicellular aggregate formation.
The hESCs under different treatments were dissociated by trypsin and fixed by 4% paraformaldehyde. And the staining was carried out according to the manufacturer's instructions (MBL Laboratories, Watertown, Mass.). After staining, samples were analysed by flow cytometry using a FACS Calibur flow cytometer (BD).

Data set [5] has as its system epithelial to mesenchymal transition/EMT. As to the kind of experiment: Induction of MET / inhibition of EMT. In kind it is cell-based.
Data set [6] deals with growth factor receptors, AKT and ERK. As to the kind of experiment: Western blot of phosphorylation status in hESCs. It counts as cell-based, human. An excerpt: Interplay between physical/structural environment and growth factor plays a very important role in cell fate regulation (Comoglio, P. M., Boccaccio, C., & Trusolino, L., Curr Opin Cell Biol 15 (5):565-571 (2003)). To examine whether growth factors are involved in integrin-mediated hESC survival, we treated dissociated hESCs with Tzv or Ptn together with individual highly specific growth factor receptor inhibitors. […] Similarly inhibition of FGFR, IGFR, EGFR1 or Erb2 also greatly abolished Tzv-induced hESC survival in suspension culture.
Phosphatidylinositol-3-kinase (PI-3K) signaling and MAPK/ERK are major regulators for hESC self-renewal (Armstrong, L. et al., Hum Mol Genet 15 (11): 1894-1913 (2006); Paling, N. R. et al., J Biol Chem 279 (46):48063-48070 (2004); Pyle, A. D., Lock, L. F., & Donovan, P. J., Nat Biotechnol 24 (3):344-350 (2006); Li, J. et al., Differentiation 75 (4):299-307 (2007)). Phosphorylation of ERK and AKT, a downstream effector of PI-3K, were increased upon treatment of dissociated hESCs with Ptn, and this increase was abolished by integrin blocking antibody (FIG. 4e,f). Moreover, activation of AKT and ERK by Ptn was blocked by inhibitors of FGFR, IGFR, EGFR or Erb2 (FIG. 4g and data not shown).
(A western blot detects proteins with antibodies after separation by electrophoresis.)

The subject of data set [7] is stem cells. As to the kind of experiment: Survival and anti-differentiation of stem cells ex vivo. It counts as cell-based. Particulars: human and mouse embryonic, neural, skin, mesenchymal, hematopoietic, stromal and epithelial stem cells; contact immediately after isolation. An excerpt:
In some embodiments, the invention provides methods of promoting survival and anti-differentiation in stem cells ex-vivo.

The test system of data set [8] is hESCs. The data set can be described thus: Karyotyping (G-banding) of long-term expanded hESCs. Particulars: more than 20 generations; chemically-defined medium. It counts as cell-based, human. As to the method: Teratoma formation experiments were performed by injecting 3-5 million hESCs (maintained in the presence of compounds Tvz or Ptn) under the kidney capsule of nude mice. After 4-5 weeks, all mice developed teratomas, which were removed and then immunohistologically analyzed by The Scripps Research Institute Research Histology Service and Animal Resources. Compounds treated cells were karyotyped by standard G-banding at the Children's Hospital Oakland, Cytogenetics Laboratory. No chromosomal abnormality was found in the 10 randomly picked nuclei.

On to `O=C(NCc1ccccc1)c1csc(Nc2ccncn2)n1` [drawing 17], for which the “Activity (% ALP positive colony formation by hESCs)” value in data set [1] was determined as 24.1%.
Take `CC(C)CCNS(=O)(=O)c1ccc(Nc2nccc(N3CCCc4ccccc43)n2)cc1`: the “Activity (% ALP positive colony formation by hESCs)” value in data set [1] came to 3.4%.
Same read-out and setting: under `O=S(=O)(NC1CC1)c1ccc(Nc2nccc(N3CCCc4ccccc43)n2)cc1` stands 3.1%; under `COc1ccc2c(c1)CCCN2c1ccnc(Nc2ccc(S(=O)(=O)NCCC(C)C)cc2)n1`, 3.3%.
Turning to `O=S(=O)(NC1CC1)c1ccc(Nc2nccc(N3CCCc4cc(O)ccc43)n2)cc1`, in data set [1], the “Activity (% ALP positive colony formation by hESCs)” value is 8%.
On the same count and under the same terms, under `CC(C)CCNS(=O)(=O)c1cccc(Nc2nccc(N3CCCc4cc(O)ccc43)n2)c1` stands 3.1%.
For the molecule `CNS(=O)(=O)c1ccc(Nc2nccc(N3CCc4ccccc4C3)n2)cc1`, the “Activity (% ALP positive colony formation by hESCs)” value in data set [1] was found to be 3.6%.
For `O=C(NCc1ccccc1)c1csc(Nc2ccccc2)n1`, the “Activity (% ALP positive colony formation by hESCs)” value in data set [1] stood at 4.5%.
Take `COc1ccc(CNC(=O)c2csc(Nc3ccncn3)n2)cc1`: the “Activity (% ALP positive colony formation by hESCs)” value in data set [1] is given as 5%.
In the case of `CN(C)CCCn1cc(C2=C(c3c[nH]c4ccccc34)C(=O)NC2=O)c2ccccc21` [bisindolylmaleimide I, reference compound], in data set [2] (PKC inhibitor in combination with Ptn), the “effect on increased cell adhesion induced by Ptn” value was “could antagonize the increased cell adhesion”. Besides, the “effect on cell adhesion induced by Tzv” value in data set [2] (PKC inhibitor in combination with Tzv) is recorded as “had no effect”.
Turning to `CNS(=O)(=O)c1ccc(Nc2nccc(N3CCCc4cc(OC)ccc43)n2)cc1`, in data set [1], the “Activity (% ALP positive colony formation by hESCs)” value amounted to 3.1%.
On the same count and under the same terms, under `O=C(NCC1CC1)c1ccc(Nc2nccc(N3CCCc4cc(O)ccc43)n2)cc1` stands 2.9%.
For the molecule `CCCCCCCCCCCCCC(=O)O[C@@H]1[C@@H](C)[C@@]2(O)[C@@H](C=C(CO)C[C@]3(O)C(=O)C(C)=C[C@@H]23)[C@@H]2C(C)(C)[C@]12OC(C)=O` [PMA, phorbol 12-myristate 13-acetate, reference compound], in data set [2], the “cell adhesion and colony formation of dissociated hESCs” value was “substantial increase in cell adhesion and colony formation”. For the same molecule, the integrin activation entry in data set [3] is “caused integrin activation”.
On to `CC(C)CCNS(=O)(=O)c1ccc(Nc2nccc(N3CCc4ccccc4C3)n2)cc1`, for which, in data set [1], the “Activity (% ALP positive colony formation by hESCs)” value came out at 3.2%.
`O=S(=O)(NC1CC1)c1ccc(Nc2nccc(N3CCc4ccccc43)n2)cc1`: the “Activity (% ALP positive colony formation by hESCs)” value in data set [1] was found to be 6.2%.
Same read-out and setting: the value for `O=S(=O)(NCC1CC1)c1ccc(Nc2nccc(Nc3ccccc3)n2)cc1` was 3.3%; that for `O=S(=O)(NCC1CC1)c1ccc(Nc2nccc(N3Cc4ccccc4C3)n2)cc1` was 3.5%; that for `O=C(NCc1ccccc1)c1csc(Nc2ccccn2)n1` was 5.2%.
As for `CNS(=O)(=O)c1ccc(Nc2nccc(N3CCCc4ccccc43)n2)cc1`, in data set [1], the “Activity (% ALP positive colony formation by hESCs)” value is 3%.
`CC(C)CCNS(=O)(=O)c1ccc(Nc2nccc(N3CCc4ccccc43)n2)cc1`: the “Activity (% ALP positive colony formation by hESCs)” value in data set [1] stood at 3.1%.
Turning to `O=S(=O)(NCC1CC1)c1ccc(Nc2nccc(N3CCCc4cc(O)ccc43)n2)cc1` [Ptn, N-(cyclopropylmethyl)-4-(4-(6-hydroxy-3,4-dihydroquinolin-1(2H)-yl)pyrimidin-2-ylamino)benzenesulfonamide], in data set [1] (adherent culture (e.g. Matrigel-coated plate)), the “survival of dissociated hESCs in adherent culture” value was “promoted survival”. For the same molecule, in data set [4], the “survival of dissociated hESCs in suspension culture” value is given as “had no effect”. In data set [2], the “adhesion of dissociated hESCs to Matrigel or laminin” value is reported as “dramatically increased adhesion” and the “adhesion of hESCs to gelatin or poly-lysine” value is given as “not affected”. For the same molecule, the “MET induction and EMT inhibition” value in data set [5] was “can induce MET (the reverse of EMT) and inhibit EMT”. In addition, the “phosphorylation of ERK and AKT” value in data set [6] (dissociated hESCs) is “increased”. Also, the “phosphorylation of growth factor receptor” value in data set [6] (hESCs treated for 2 h, DMSO control) was “significantly increased the phosphorylation”. Also, the “survival and anti-differentiation of stem cells” value in data set [7] was “effective in promoting survival and anti-differentiation”. The “karyotype of hESCs serially passaged in compound-containing medium” value in data set [8] is “normal karyotype”.
Take `CC(C)CCNS(=O)(=O)c1ccc(Nc2nccc(N3CCCc4cc(O)ccc43)n2)cc1`: the “Activity (% ALP positive colony formation by hESCs)” value in data set [1] was 23.5%.
On the same count and under the same terms, the value for `O=S(=O)(NCC1CC1)c1ccc(Nc2nccc(N3CCCc4ccccc43)n2)cc1` was 5.2%.
As to `O=S(=O)(NCC1CC1)c1ccc(Nc2nccc(N3CCc4ccccc43)n2)cc1`, the “Activity (% ALP positive colony formation by hESCs)” value in data set [1] is 6.1%.
Same read-out and setting: the value for `O=S(=O)(NCC1CC1)c1ccc(Nc2nccc(N3CCCc4cc(O)ccc43)n2)cc1` [drawing 23] was 23.2%; that for `CNS(=O)(=O)c1ccc(Nc2nccc(N3CCCc4cc(O)ccc43)n2)cc1` was 5.7%.
Still for that read-out and setting: the value for `O=C(NCc1ccccc1)c1csc(Nc2ccncc2)n1` was 20.3%.

The values above are taken from patent US10975352B2, “Methods of enhancing cell survival of stem cells” (The Scripps Research Institute, priority 2008, dated 2021).
